Patent US20230105701A1, “DISSOLUTION-ENHANCED OLAPARIB COMPOSITION” (SHANGHAI INSTITUTE OF MATERIA MEDICA, CHINESE ACADEMY OF …, priority 2020, published 2023)

What was measured:
[1] = within the physiological pH range; cited from earlier work
[2] = Solubility test (supersaturated solubility by HPLC); type: physicochemical; conditions: pH 4.0 citric acid/disodium hydrogen phosphate buffer, aqueous buffer, thermodynamic from solid, pH 4.0 citrate buffer, 37° C., shaker 100 rpm, equivalent to 10 mg olaparib in 5 ml, average of 2 runs
Method: The dissolution-enhanced olaparib compositions prepared in Preparation Examples 1-3 and Comparative Examples 1-8 and the olaparib API (free base) were taken in an amount equivalent to 10 mg of olaparib, dispersed in 5 ml of a pH 4.0 buffer (citric acid: 21 g/L: disodium hydrogen phosphate 71.63 g/L=61.45:38.55) as the solvent and shaken in a shaker at 100 rpm for 2 h at 37° C., and sampled. The samples were centrifugal filtered and measured by HPLC to determine the supersaturated solubility. The average value was obtained from 2 parallel runs.
The operation conditions of the HPLC were:
Apparatus: A liquid chromatograph with a UV detector;
Chromatographic Waters Sunfire C18, 4.6 mm*50 mm
Eluent: A: 0.1% TFA in water; B: 0.1% TFA in acetonitrile;

[3] = cited from earlier work

solubility at 2 h [2]: 118 µg/mL
SMILES: O=C(c1cc(Cc2n[nH]c(=O)c3ccccc23)ccc1F)N1CCN(C(=O)C2CC2)CC1 [Olaparib API, 1-(cyclopropanoyl)-4-[5-[(3,4-dihydro-4-oxo-1-phthalazinyl)methyl]-2-fluorobenzoyl]piperazine]
solubility [1]: less than 0.2 mg/ml
permeability [3]: medium
